The subject of one series is CHS mouse model. The series can be described thus: Efficacy test in CHS mouse model (FITC sensitization, right ear thickness). The class given is in vivo, C57BL/6N mice. Conditions: 3 μg/mouse. How it is done:
Construction of CHS mouse model: 6- to 8-week-old female C57BL/6N mice (Beijing Vital River Laboratory Animal Technology Co., Ltd.) were selected, and all mice were shaved off abdominal hair using a small animal hair clipper. 400 μL of the sensitizer was pipetted with a micropipette and applied evenly to the abdomen of the mice for epidermal sensitization. After application, the mice were held for 3-5 s and the solvent was allowed to evaporate from the skin as clean as possible. The specific preparation method for the sensitizer was: 0.5 g of FITC (fluorescein isothiocyanate; sigma-Aldrich) powder was weighed and fully dissolved in a solvent of 50 mL of acetone (SinoPharm reagent) and 50 mL of DBP (dibutyl phthalate; sigma-Aldrich) in equal proportion to give the sensitizer with the FITC content of 0.5%. On the 6th day after sensitization, the thickness of the right ear of the mice was measured with a dial thickness gauge as a baseline value, then a freshly prepared sensitizer was pipetted with a micropipette and applied evenly inside and outside of the right ear of the mice respectively for epidermal stimulation, and 10 μL of the sensitizer was applied on each side. 24 h after stimulation, the thickness of the right ear of the mice was measured again with a dial thickness gauge to obtain the thickness change of the right ear of the mice, A thickness of right ear=(thickness of right ear 24 h after stimulation)−(baseline value of thickness of right ear).
Therapeutic regimen for CHS model mouse: mice were divided into a blank group, a negative control group, a positive control group, and an experimental group. […] The drug was administered by one-time intraperitoneal injection 1 h before the right ear epidermal stimulation.

Series [1] is described as follows: Plasma protein binding rate, mouse plasma (equilibrium dialysis). The class given is in vitro ADME. Conditions: CD-1, mouse, pH 7.4, equilibrium dialysis 6 h, 37° C. Here is the method:
(§1) The protein binding rates of the compound of the present invention in plasma of 5 species (humans, monkeys, dogs, rats, and mice) were determined using the following method.
(§2) • 1. Human plasma (BioIVT), monkey plasma (ADME-plasma-pooled monkey-05212020), beagle dog plasma (BioIVT), SD rat plasma (BioIVT), and CD-1 mouse plasma (BioIVT) • 2. Na2HPO4 (Sigma S5136-500G) • 3. NaH2PO4 (Sigma S3139-500G) • 4. NaCl (Sigma S5886-IKG) • 5. 96-well equilibrium dialysis plate (HTDialysis LLC, Gales Ferry, CT, HTD96B) and equilibrium dialysis membrane (MWCO 12-14K, 1101) • 6. Positive control compound warfarin • 7. ABI QTrap 5500 liquid chromatography-mass spectrometry system
(§3) • 1. […] Preparation of a dialysis membrane: the dialysis membrane was soaked in ultrapure water for 60 min to separate the membrane into two pieces, then soaked with 20% ethanol for 20 min, and finally soaked with dialysis buffer for 20 min. • 3. Preparation of plasma: the frozen plasma was quickly thawed at room temperature and then centrifuged at 3,220 g at 4° C. for 10 min to remove clots, and the supernatant was collected to a new centrifuge tube. The pH of the plasma was measured and recorded. The plasma with pH 7-8 was used. • 4. […]
(§4) The peak areas of the compound on the buffer side and the plasma side were measured. The plasma protein binding rate of the compound was calculated by the following formula: […]

The nature of series [2]: Plasma protein binding rate, human plasma (equilibrium dialysis). The class given is in vitro ADME. The note with it: pH 7.4, equilibrium dialysis 6 h, 37° C. Here is the method: as §1, §2, §3, §4

For the compound `C[C@]12C=CC(=O)C=C1CC[C@@H]1[C@@H]2[C@@H](O)C[C@@]2(C)[C@H]1C[C@H]1O[C@@H](c3ccc(Cc4cc(N)c5c(c4)CCO5)cc3)O[C@]12C(=O)CO` [Compound 009, (6aR,6bS,7S,8aS,8bS,10R,11aR,12aS,12bS)-10-(4-((7-amino-2,3-dihydrobenzofuran-5-yl)methyl)phenyl)-7-hydroxy-8b-(2-hydroxyacetyl)-6a,8a-dimethyl-6a,6b,7,8,8a,8b,11a,12,12a,12b-decahydro-1H-naphtho[2′,1′:4,5]indeno[1,2-d][1,3]dioxolan-4(2H)-one], in the series on CHS mouse model (one-time intraperitoneal injection 1 h before right ear stimulation, measured 24 h after stimulation), the “thickness of the right ear in CHS mice compared to the negative control group” value is “significant decrease”. Besides, the “efficacy compared with positive reference compound a at the same dose” value in the series on CHS mouse model (one-time intraperitoneal injection, CHS mice, right ear thickness) is given as “superior in efficacy to the positive reference compound a”. Further, the unbound share (fraction unbound) at 6 h, 1 μM in series [1] and in series [2] was 0.002 in each case.

(Values after patent US20240307415A1, “STEROID COMPOUND, AND PHARMACEUTICAL COMPOSITION THEREOF AND USE THEREOF” (JIANGSU SIMCERE PHARMACEUTICAL CO., LTD., priority 2021, published 2024).)
